Assay results reported in patent publication US20240360409A1, “METHOD FOR PRODUCING HIGHLY PROLIFERATIVE CELL, AND HIGHLY PROLIFERATIVE CELL AND USE THEREOF” (TOKYO MEDICAL UNIVERSITY, priority 2021, published 2024).

System: Normal Human Astrocytes (NHA)
Test: Long-term culturing of human astrocytes using medium containing inhibitor (Example 1)
Format: cell-based
Conditions: for Number of days up to day of final passage / Passage number: NHA, 41 days of culturing, Y 10 μM, A 0.5 μM
Procedure: Long-term culturing of human astrocytes was performed using the following materials, reagents, and products for culturing.
• Normal Human Astrocytes (NHA) (CC-2565, Lonza Group AG)
• Culture medium: AGM Astrocyte Growth Medium Bullet Kit (CC-3186, Lonza Group AG) (composition of AGM: basal medium, FBS (3% (v/v)), L-glutamine, ascorbic acid, hEGF, insulin, and antibiotic) • Inhibitor Y: CultureSure (registered trademark) Y-27632 (034-24024, FUJIFILM Wako Pure Chemical Corporation), final concentration: 10 μM • Inhibitor A: CultureSure (registered trademark) A-83-01(035-24113, FUJIFILM Wako Pure Chemical Corporation), final concentration: 0.5 μM • Cell detachment agent: Accutase (AT104, Innovative Cell Technologies, Inc.) • Cell buffer: phosphate buffered saline (Dulbecco's formula; without calcium and magnesium) (BNDSBN200, KAC Co., Ltd.) • Medium for cell freezing: CELLBANKER 1 (CB011 TaKaRa Bio Inc. (NIPPON ZENYAKU KOGYO CO., LTD.)) • Cell culturing dish 60 mm (150462, Thermo Fisher Scientific Inc.) • Cell culturing dish 100 mm (150466, Thermo Fisher Scientific Inc.) • Cell culturing dish 150 mm (150468, Thermo Fisher Scientific Inc.) • Stericup Quick Release-GP Sterile Vacuum Filtration System (S2GPU02RE, Merck Millipore) • Inhibitor-free medium for culture supernatant collection: Dulbecco's Modied Eagle Medium (DMEM) (C11995500CP, Gibco (registered trademark), Thermo Fisher Scientific Inc.) and N-2 Supplement (x100) (17502-048, Gibco (registered trademark), Thermo Fisher Scientific Inc.)
The long-term culturing was performed in accordance with the following procedure. A frozen tube of the human astrocyte cells (NHA) was thawed in a water bath at 37° C. Next, the lysed cells were transferred to the culture medium so that the total volume was 10 mL and subjected to centrifugation at 180×g for 3 minutes at room temperature, and then the medium was removed. The cells were divided into 4 groups; a group to which only the inhibitor Y was added (hereinafter, the NHA-Y group), a group to which only the inhibitor A was added (hereinafter, the NHA-A group), a group to which the inhibitor Y and the inhibitor A were added (hereinafter, the NHA-YA group), and a group to Ih no inhibitor was added (normal group).
The medium was replaced every other day or every two days with fresh culture medium containing each inhibitor (or not containing any inhibitor). When the confluency reached 80 to 90%, the cells were detached using the cell detachment agent, and the cells were suspended in the culture medium containing each inhibitor (or not containing any inhibitor) and passaged into a 6-well plate at a seeding density of 4.2×10^3 cells/cm^2. While continuing the passaging, the culturing was performed for 41 days in the culture medium containing each inhibitor (or not containing any inhibitor).
The cell passage number and the number of days up to the day of final passage in each group are indicated in the following Table 1, and the correlations between the number of culturing days and the total number of cells are indicated in Table 2.

SMILES | Number of days up to day of final passage [days] | Passage number [times] | Number of cells (culturing day 0) | Number of cells (culturing day 5) | Number of cells (culturing day 8) | Number of cells (culturing day 13) | Number of cells (culturing day 19) | Number of cells (culturing day 29) | Number of cells (culturing day 15) | Number of cells (culturing day 23) | Number of cells (culturing day 30)
C[C@@H](N)[C@H]1CC[C@H](C(=O)Nc2ccncc2)CC1 [Y] | 29 | 5 | 8.00 ×10^4 cells | 87.25 ×10^4 cells | 245.39 ×10^4 cells | 391.09 ×10^4 cells | 733.30 ×10^4 cells | 756.21 ×10^4 cells |  |  | 
Cc1cccc(-c2nn(C(=S)Nc3ccccc3)cc2-c2ccnc3ccccc23)n1 [A, 3-(6-methylpyridin-2-yl)-4-(4-quinolyl)-1-phenylthiocarbamoyl-1H-pyrazole] | 30 | 4 | 8.00 ×10^4 cells | 55.75 ×10^4 cells |  |  |  |  | 264.81 ×10^4 cells | 595.83 ×10^4 cells | 1005.46 ×10^4 cells
